Results reported in ChEMBL document CHEMBL1201862, “PubChem BioAssay data set” (2004).
Where “and” joins values, the source holds several entries; their conditions need not be identical. Identical values can stand only once.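 Values below derive from 48-hour exposures of cells grown in 96-well plates, with endpoints linearly interpolated between the two concentrations bracketing the appropriate inhibition level. The concentration for 50% growth inhibition is given as GI50.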 Calls of active or inactive are those of the source. No stated cut-off is given here; in the data, active = GI50 up to about 1.1 µM and inactive = higher.

Experiments:
Assay in all cases: NCI tumour cell line growth inhibition, 48 h
SN12C = tested on: SN12C
SK-OV-3 = tested on: SK-OV-3
SF-295 = tested on: SF-295
NCI-H460 = tested on: NCI-H460
A498 = tested on: A498
RPMI-8226 = tested on: RPMI-8226
SR = tested on: SR
RXF 393 = tested on: RXF 393
MOLT-4 = tested on: MOLT-4
SK-MEL-2 = tested on: SK-MEL-2
SNB-75 = tested on: SNB-75
OVCAR-3 = tested on: OVCAR-3
CCRF-CEM = tested on: CCRF-CEM
HL-60 = tested on: HL-60
COLO 205 = tested on: COLO 205
SNB-19 = tested on: SNB-19
SW-620 = tested on: SW-620
Malme-3M = tested on: Malme-3M
SF-268 = tested on: SF-268
786-0 = tested on: 786-0
MCF7 = tested on: MCF7
UO-31 = tested on: UO-31
HT-29 = tested on: HT-29
M14 = tested on: M14
EKVX = tested on: EKVX
SK-MEL-5 = tested on: SK-MEL-5
IGROV-1 = tested on: IGROV-1
UACC-257 = tested on: UACC-257
K562 = tested on: K562
HOP-92 = tested on: HOP-92
NCI-H23 = tested on: NCI-H23
U-251 = tested on: U-251
NCI-H522 = tested on: NCI-H522
Hs-578T = tested on: Hs-578T
MDA-N = tested on: MDA-N
KM12 = tested on: KM12
TK-10 = tested on: TK-10
PC-3 = tested on: PC-3
DU-145 = tested on: DU-145
NCI/ADR-RES = tested on: NCI/ADR-RES
CAKI-1 = tested on: CAKI-1
MDA-MB-435 = tested on: MDA-MB-435
A549 = tested on: A549
HOP-62 = tested on: HOP-62
NCI-H226 = tested on: NCI-H226
SF-539 = tested on: SF-539
OVCAR-5 = tested on: OVCAR-5
T47D = tested on: T47D
LOX IMVI = tested on: LOX IMVI
OVCAR-4 = tested on: OVCAR-4
HCT-116 = tested on: HCT-116
MDA-MB-231 = tested on: MDA-MB-231
UACC-62 = tested on: UACC-62
ACHN = tested on: ACHN
HCC 2998 = tested on: HCC 2998
HCT-15 = tested on: HCT-15
OVCAR-8 = tested on: OVCAR-8
SK-MEL-28 = tested on: SK-MEL-28

**Q.** Which results are given for `Clc1ccc(C2=NNC(c3cccc(Cl)c3)C2)cc1` (stereo not given)?
**A.** GI50 (SN12C): 21.4 µM (inactive); GI50 (SK-OV-3): 22 µM (inactive); GI50 (SF-295): 29.1 µM (inactive); GI50 (NCI-H460): 28.5 µM (inactive); GI50 (A498): 20 µM (inactive); GI50 (RPMI-8226): 17.1 µM (inactive); GI50 (SR): 41.9 µM (inactive); GI50 (RXF 393): 31.3 µM (inactive); GI50 (MOLT-4): 27.1 µM (inactive); GI50 (SK-MEL-2): 0.362 µM (active); GI50 (SNB-75): 26.8 µM (inactive); GI50 (OVCAR-3): 28.6 µM (inactive); GI50 (CCRF-CEM): 29 µM (inactive); GI50 (HL-60): 34.5 µM (inactive); GI50 (COLO 205): 15.9 µM (inactive); GI50 (SNB-19): 34.4 µM (inactive); GI50 (SW-620): 23.2 µM (inactive); GI50 (Malme-3M): 28.1 µM (inactive); GI50 (SF-268): 29.3 µM (inactive); GI50 (786-0): 28.3 µM (inactive); GI50 (MCF7): 17.4 µM (inactive); GI50 (UO-31): 1.9 µM (inactive); GI50 (HT-29): 36.9 µM (inactive); GI50 (M14): 53.7 µM (inactive); GI50 (EKVX): 23.4 µM (inactive); GI50 (SK-MEL-5): 14.8 µM (inactive); GI50 (IGROV-1): 0.344 µM (active); GI50 (UACC-257): 32.3 µM (inactive); GI50 (K562): 37.4 µM (inactive); GI50 (HOP-92): 10.8 µM (inactive); GI50 (NCI-H23): 25.8 µM (inactive); GI50 (U-251): 16.5 µM (inactive); GI50 (NCI-H522): 2.98 µM (inactive); GI50 (Hs-578T): 28.8 µM (inactive); GI50 (MDA-N): 21.1 µM (inactive); GI50 (KM12): 35.9 µM (inactive); GI50 (TK-10): 26.4 µM (inactive); GI50 (PC-3): 24.9 µM (inactive); GI50 (DU-145): 36.9 µM (inactive); GI50 (NCI/ADR-RES): 26.5 µM (inactive); GI50 (CAKI-1): 26.2 µM (inactive); GI50 (MDA-MB-435): 17.9 µM (inactive); GI50 (A549): 23.2 µM (inactive); GI50 (HOP-62): 32.2 µM (inactive); GI50 (NCI-H226): 35.6 µM (inactive); GI50 (SF-539): 37.2 µM (inactive); GI50 (OVCAR-5): 44.8 µM (inactive); GI50 (T47D): 44.6 µM (inactive); GI50 (LOX IMVI): 16 µM (inactive); GI50 (OVCAR-4): 32.8 µM (inactive); GI50 (HCT-116): 26.7 µM (inactive); GI50 (MDA-MB-231): 18.7 µM (inactive); GI50 (UACC-62): 28.8 µM (inactive)

**Q.** For `Nc1nc(Cl)c(/N=N/c2ccc(Cl)cc2)c(NCC2(CO)CC(OCc3ccccc3)C2)n1` (stereo not given), which GI50 (SNB-75) is on record?
**A.** 6.71 µM (inactive)

**Q.** And the GI50 (HL-60)?
**A.** 3.63 µM (inactive) and 3.48 µM (inactive)

**Q.** What about the GI50 (Malme-3M) of the same molecule?
**A.** 1.62 µM (inactive)

**Q.** What about the GI50 (UO-31) of the same molecule?
**A.** 2.92 µM (inactive) and 2.08 µM (inactive)

**Q.** What about the GI50 (K562) of the same molecule?
**A.** 4.98 µM (inactive) and 3.03 µM (inactive)

**Q.** What about the GI50 (ACHN) of the same molecule?
**A.** 1.53 µM (inactive) and 1.73 µM (inactive)

**Q.** And the GI50 (CAKI-1)?
**A.** 3.31 µM (inactive) and 1.82 µM (inactive)

**Q.** What about the GI50 (T47D) of the same molecule?
**A.** 3.67 µM (inactive) and 3.15 µM (inactive)

**Q.** What does the source list for `CN1C/C(=C\c2ccccc2[N+](=O)[O-])C(=O)/C(=C/c2ccccc2[N+](=O)[O-])C1`?
**A.** GI50 (SK-OV-3): 3.02 µM (inactive); GI50 (NCI-H460): 1.79 µM (inactive); GI50 (A498): 2.17 µM (inactive); GI50 (MOLT-4): 0.238 µM (active); GI50 (SK-MEL-2): 2.11 µM (inactive); GI50 (SNB-75): 2.21 µM (inactive); GI50 (HL-60): 0.112 µM (active); GI50 (HCC 2998): 1.01 µM (active); GI50 (COLO 205): 0.25 µM (active); GI50 (SNB-19): 4.26 µM (inactive); GI50 (SW-620): 0.201 µM (active); GI50 (786-0): 0.277 µM (active); GI50 (MCF7): 0.348 µM (active); GI50 (UO-31): 0.303 µM (active); GI50 (SK-MEL-5): 0.902 µM (active); GI50 (IGROV-1): 0.782 µM (active); GI50 (HOP-92): 0.836 µM (active); GI50 (U-251): 1.19 µM (inactive); GI50 (HCT-15): 0.262 µM; GI50 (KM12): 1.99 µM (inactive); GI50 (TK-10): 1.17 µM (inactive); GI50 (PC-3): 1.23 µM (inactive); GI50 (DU-145): 2.2 µM (inactive); GI50 (NCI/ADR-RES): 1.03 µM (active); GI50 (A549): 3.55 µM (inactive); GI50 (HOP-62): 2.48 µM (inactive); GI50 (NCI-H226): 5.05 µM (inactive); GI50 (HCT-116): 0.195 µM (active); GI50 (UACC-62): 0.771 µM (active)

**Q.** `O=C1c2ccccc2-c2cc3ccccc3c(=O)n21` was tested. Which GI50 (SN12C) did it give?
**A.** > 100 µM (inactive)

**Q.** What about the GI50 (SF-295) of the same molecule?
**A.** > 100 µM (inactive)

**Q.** What about the GI50 (OVCAR-8) of the same molecule?
**A.** > 100 µM (inactive)

**Q.** And the GI50 (NCI-H460)?
**A.** > 100 µM (inactive)

**Q.** And the GI50 (RPMI-8226)?
**A.** 71.1 µM (inactive)

**Q.** What about the GI50 (SR) of the same molecule?
**A.** > 100 µM (inactive)

**Q.** And the GI50 (SK-MEL-2)?
**A.** > 100 µM (inactive)

**Q.** And the GI50 (SNB-75)?
**A.** > 100 µM (inactive)

**Q.** What about the GI50 (OVCAR-3) of the same molecule?
**A.** > 100 µM (inactive)

**Q.** And the GI50 (CCRF-CEM)?
**A.** > 100 µM (inactive)

**Q.** And the GI50 (HCC 2998)?
**A.** > 100 µM (inactive)

**Q.** What about the GI50 (COLO 205) of the same molecule?
**A.** > 100 µM (inactive)

**Q.** What about the GI50 (SNB-19) of the same molecule?
**A.** > 100 µM (inactive)

**Q.** What about the GI50 (SW-620) of the same molecule?
**A.** > 100 µM (inactive)

**Q.** What about the GI50 (SF-268) of the same molecule?
**A.** > 100 µM (inactive)

**Q.** And the GI50 (786-0)?
**A.** 68.5 µM (inactive)

**Q.** And the GI50 (MCF7)?
**A.** 29 µM (inactive)

**Q.** And the GI50 (UO-31)?
**A.** 49.1 µM (inactive)

**Q.** And the GI50 (HT-29)?
**A.** > 100 µM (inactive)

**Q.** What about the GI50 (M14) of the same molecule?
**A.** 97.3 µM (inactive)

**Q.** And the GI50 (EKVX)?
**A.** > 100 µM (inactive)

**Q.** What about the GI50 (SK-MEL-5) of the same molecule?
**A.** > 100 µM (inactive)

**Q.** What about the GI50 (IGROV-1) of the same molecule?
**A.** > 100 µM (inactive)

**Q.** And the GI50 (UACC-257)?
**A.** > 100 µM (inactive)

**Q.** And the GI50 (K562)?
**A.** > 100 µM (inactive)

**Q.** And the GI50 (ACHN)?
**A.** > 100 µM (inactive)

**Q.** And the GI50 (NCI-H23)?
**A.** > 100 µM (inactive)

**Q.** And the GI50 (NCI-H522)?
**A.** 15.5 µM (inactive)

**Q.** And the GI50 (Hs-578T)?
**A.** > 100 µM (inactive)

**Q.** What about the GI50 (SK-MEL-28) of the same molecule?
**A.** > 100 µM (inactive)

**Q.** What about the GI50 (HCT-15) of the same molecule?
**A.** > 100 µM

**Q.** What about the GI50 (MDA-N) of the same molecule?
**A.** > 100 µM (inactive)

**Q.** And the GI50 (KM12)?
**A.** > 100 µM (inactive)

**Q.** What about the GI50 (TK-10) of the same molecule?
**A.** > 100 µM (inactive)

**Q.** What about the GI50 (PC-3) of the same molecule?
**A.** > 100 µM (inactive)

**Q.** And the GI50 (DU-145)?
**A.** > 100 µM (inactive)

**Q.** And the GI50 (NCI/ADR-RES)?
**A.** > 100 µM (inactive)

**Q.** What about the GI50 (MDA-MB-435) of the same molecule?
**A.** > 100 µM (inactive)

**Q.** What about the GI50 (A549) of the same molecule?
**A.** > 100 µM (inactive)

**Q.** What about the GI50 (SF-539) of the same molecule?
**A.** > 100 µM (inactive)

**Q.** And the GI50 (OVCAR-5)?
**A.** > 100 µM (inactive)

**Q.** What about the GI50 (T47D) of the same molecule?
**A.** > 100 µM (inactive)

**Q.** And the GI50 (LOX IMVI)?
**A.** > 100 µM (inactive)

**Q.** And the GI50 (HCT-116)?
**A.** > 100 µM (inactive)

**Q.** What about the GI50 (UACC-62) of the same molecule?
**A.** > 100 µM (inactive)
